Measurements reported in the supplement of paper PMC10307832.

Experiments:
Test in all cases: relative viability (nuclei count vs DMSO), 5 days (fraction); higher = more cells survive
[1] = compound: C1=CC2=NC=CN=C2C=C1/C=C/3\C(=O)NC(=O)S3 + Nc1ncn([C@H]2C[C@H](O)[C@@H](CO)O2)c(=O)n1 [Decitabine] (partner 2 µM)
Method in brief: (§1)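 Relative viability equals treated-well nuclei counts divided by vehicle-well nuclei counts. Counts came from 4× images of lung cancer cell lines grown in 1536-well plates for 5 days after pin-tool dosing on the day after seeding. Dosing used one drug alone or a fixed anchor-drug dose plus five library-drug doses (not always all listed) in √10 steps, and values are medians of duplicate plates.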

[2] = compound: C1=CC2=NC=CN=C2C=C1/C=C/3\C(=O)NC(=O)S3 + C[C@@H](Oc1cc(-c2cnn(C3CCNCC3)c2)cnc1N)c1c(Cl)ccc(F)c1Cl [Crizotinib] (partner 1 µM)
Method in brief: as §1

[3] = compound: CCN1CCN(c2ccc(Nc3cc(N(C)C(=O)Nc4c(Cl)c(OC)cc(OC)c4Cl)ncn3)cc2)CC1 [BGJ398] + COc1cccc2cc(-c3nc([C@H]4CC[C@H](C(=O)O)CC4)n4ncnc(N)c34)[nH]c12 [OSI-027] (partner 0.5 µM)
Method in brief: as §1

[4] = compound: C1=CC2=NC=CN=C2C=C1/C=C/3\C(=O)NC(=O)S3 + COc1cccc2cc(-c3nc([C@H]4CC[C@H](C(=O)O)CC4)n4ncnc(N)c34)[nH]c12 [OSI-027] (partner 0.5 µM)
Method in brief: as §1

Row | Cell Line | relative viability ([1]; first compound 0.02 µM) | relative viability ([1]; first compound 0.06325 µM) | relative viability ([1]; first compound 0.2 µM) | relative viability ([1]; first compound 0.6325 µM) | relative viability ([1]; first compound 2 µM) | relative viability ([2]; first compound 0.02 µM) | relative viability ([2]; first compound 0.06325 µM) | relative viability ([2]; first compound 0.2 µM) | relative viability ([2]; first compound 0.6325 µM) | relative viability ([2]; first compound 2 µM) | relative viability ([3]; first compound 0.01 µM) | relative viability ([3]; first compound 0.03162 µM) | relative viability ([3]; first compound 0.1 µM) | relative viability ([3]; first compound 0.3162 µM) | relative viability ([3]; first compound 1 µM) | relative viability ([4]; first compound 0.02 µM) | relative viability ([4]; first compound 0.06325 µM) | relative viability ([4]; first compound 0.2 µM) | relative viability ([4]; first compound 0.6325 µM) | relative viability ([4]; first compound 2 µM)
1 | ChaGo-K-1 | 0.512 | 0.459 | 0.533 | 0.498 | 0.568 | 1.02 | 0.613 | 1.12 | 1.07 | 1.02 | 0.512 | 0.491 | 0.567 | 0.548 | 0.435 | 0.567 | 0.58 | 0.544 | 0.424 | 0.352
2 | NCI-H1650 | 0.425 | 0.375 | 0.47 | 0.36 | 0.347 | 0.91 | 1.19 | 0.974 | 0.966 | 1.22 | 0.487 | – | 0.56 | 0.273 | 0.396 | 0.688 | 0.605 | 0.783 | 0.677 | 0.493
3 | NCI-H2009 | 0.353 | 0.388 | 0.358 | 0.381 | 0.352 | 1.06 | 1.1 | 1.05 | 1.04 | 1.03 | 0.553 | 0.73 | 0.653 | 0.633 | 0.685 | 0.682 | 0.659 | 0.701 | 0.579 | 0.452
4 | LOU-NH91 | 0.797 | 0.849 | 0.83 | 0.782 | 0.756 | 0.717 | 0.761 | 0.745 | 0.755 | 0.72 | 0.667 | – | 0.734 | 0.478 | 0.728 | 0.726 | 0.767 | 0.673 | 0.681 | 0.464
5 | NCI-H2405 | 0.686 | 0.818 | 0.751 | 0.793 | 0.586 | 0.865 | 0.847 | 0.826 | 0.869 | 0.798 | 0.644 | 0.724 | 0.664 | 0.666 | 0.655 | 0.644 | 0.698 | 0.648 | 0.6 | 0.225
6 | LCLC-97TM1 | 0.293 | 0.244 | 0.229 | 0.247 | 0.221 | 0.391 | 0.344 | 0.375 | 0.354 | 0.218 | 0.381 | 0.578 | 0.464 | 0.567 | 0.528 | 0.556 | 0.522 | 0.436 | 0.461 | 0.145
7 | NCI-H596 | 0.886 | 0.954 | 1.09 | 0.972 | 1.72 | 0.976 | 0.87 | 1.06 | 0.989 | 1 | 0.761 | 0.693 | 0.655 | 0.648 | 0.621 | 0.749 | 0.542 | 0.875 | 0.677 | 0.532
8 | NCI-H727 | 0.891 | 0.848 | 0.957 | 0.915 | 0.445 | 0.768 | 0.842 | 0.75 | 0.794 | 0.517 | 0.595 | 0.791 | 0.543 | 0.519 | 0.745 | 0.624 | 0.598 | 0.686 | 0.575 | 0.343
9 | H3255 | 0.6 | 0.649 | 0.595 | 0.534 | 0.622 | 0.851 | 0.929 | 0.746 | 0.916 | 0.886 | 0.493 | – | 0.676 | 0.37 | 0.602 | 0.519 | 0.592 | 0.526 | 0.627 | 0.473
10 | SK-MES-1 | 0.353 | 0.403 | 0.437 | 0.357 | 0.331 | 0.965 | 1.11 | 1.02 | 0.981 | 1 | 0.589 | 0.693 | 0.594 | 0.565 | 0.69 | 0.658 | 0.467 | 0.715 | 0.577 | 0.392
11 | NCI-H1437 | 0.548 | 0.546 | 0.588 | 0.536 | 0.617 | 0.829 | 0.901 | 0.805 | 0.917 | 1.02 | 0.807 | 0.867 | 0.873 | 0.865 | 0.926 | 0.941 | 0.995 | 0.922 | 0.784 | 0.197
12 | LU99A | 0.932 | 0.828 | 0.884 | 0.751 | 0.725 | 0.613 | 0.597 | 0.564 | 0.415 | 0.431 | 0.268 | 0.284 | 0.281 | 0.308 | 0.332 | 0.298 | 0.332 | 0.295 | 0.293 | 0.218
13 | HCC-827 | 0.259 | 0.343 | 0.345 | 0.392 | 0.33 | 0.89 | 0.905 | 0.933 | 0.804 | 1.03 | 0.633 | – | 0.754 | 0.547 | 0.847 | 0.771 | 0.725 | 0.765 | 0.741 | 0.779
14 | LK-2 | 0.285 | 0.291 | 0.452 | 0.279 | 0.154 | 0.311 | 0.252 | 0.236 | 0.22 | 0.235 | 0.18 | 0.181 | 0.155 | 0.121 | 0.176 | 0.225 | 0.23 | 0.201 | 0.184 | 0.147
15 | HCC-366 | 0.284 | – | 0.386 | 0.306 | 0.276 | 0.441 | 0.306 | 0.605 | 0.441 | 0.409 | 0.843 | 0.964 | 0.96 | 0.822 | 0.979 | 0.727 | – | 1.06 | 0.823 | 0.322
16 | BEN | 0.715 | 0.774 | 0.886 | 0.691 | 0.635 | 0.948 | 0.856 | 0.929 | 0.795 | 0.871 | 0.319 | 0.259 | 0.279 | 0.266 | 0.276 | 0.306 | 0.287 | 0.288 | 0.289 | 0.275
17 | NCI-H23 | 0.329 | 0.357 | 0.322 | 0.286 | 0.3 | 0.49 | 0.629 | 0.498 | 0.555 | 0.351 | 0.588 | 0.726 | 0.692 | 0.518 | 0.569 | 0.518 | 0.58 | 0.661 | 0.618 | 0.27
18 | 201T | 0.901 | 0.864 | 0.824 | 0.87 | 0.879 | 0.995 | 1.07 | 1.06 | 0.994 | 1.06 | 0.781 | 0.825 | 0.793 | 0.636 | 0.564 | 0.664 | 0.682 | 0.714 | 0.671 | 0.23
19 | NCI-H2170 | 0.467 | 0.47 | 0.451 | 0.414 | 0.46 | 1.14 | 1.22 | 1.2 | 1.16 | 1.34 | 0.742 | 0.606 | 0.706 | 0.619 | 0.707 | 0.714 | 0.777 | 0.729 | 0.71 | 0.679
20 | NCI-H460 | 0.524 | 0.389 | 0.515 | 0.459 | 0.534 | 0.783 | 1.22 | 0.959 | 0.831 | 0.853 | 0.63 | 0.733 | 0.81 | 0.642 | 0.719 | 0.727 | 1 | 0.781 | 0.525 | 0.394
21 | NCI-H661 | 0.555 | 0.571 | 0.574 | 0.527 | 0.575 | 0.87 | 0.809 | 0.945 | 1 | 0.987 | 0.618 | 0.723 | 0.766 | 0.752 | 0.742 | 0.785 | 0.796 | 0.682 | 0.621 | 0.584
22 | HCC-15 | 0.625 | 0.686 | 0.717 | 0.561 | 0.553 | 0.822 | 0.897 | 0.817 | 0.747 | 0.716 | 0.689 | 0.72 | 0.693 | 0.675 | 0.554 | 0.759 | 0.672 | 0.726 | 0.641 | 0.373
23 | ABC-1 | 1.04 | 1.31 | 1.4 | 1.1 | 0.806 | 1.15 | 1.05 | 1.21 | 0.91 | 1.09 | 0.435 | 0.505 | 0.442 | 0.403 | 0.408 | 0.434 | 0.509 | 0.509 | 0.408 | 0.232
24 | LCLC-103H | 0.71 | 0.798 | 0.707 | 0.747 | 0.709 | 1.08 | 0.943 | 1.06 | 1.03 | 0.925 | 0.495 | 0.406 | 0.44 | 0.367 | 0.382 | 0.431 | 0.493 | 0.489 | 0.377 | 0.308
25 | NCI-H441 | 0.246 | 0.284 | 0.251 | 0.23 | 0.287 | 0.577 | 0.716 | 0.698 | 0.827 | 0.644 | 0.621 | 0.626 | 0.758 | 0.564 | 0.62 | 0.742 | 0.695 | 0.759 | 0.669 | 0.405
26 | EPLC-272H | 0.351 | 0.344 | 0.4 | 0.356 | 0.321 | 1.12 | 1.09 | 1.12 | 0.782 | 1.13 | 0.283 | 0.279 | 0.248 | 0.241 | 0.293 | 0.303 | 0.264 | 0.307 | 0.256 | 0.287
